Test results as given in US20230167127A1, “COMPOUNDS AND THEIR USE IN THE TREATMENT OF BACTERIAL INFECTION” (Hoffmann-La Roche Inc., priority 2020, published 2023).
pIC50: −log10 of the molar value. Read-outs that look alike come from different tables or passages of the source.

System: Escherichia coli ATCC 25922
Assay: 50% growth inhibitory concentration (IC50) determination, Iso-Sensitest broth dilution
Assay type: cell-based
Settings: strain Escherichia coli ATCC 25922, 10-point broth dilution, optical density at 600 nm over 16 h, read-out: Escherichia coli growth inhibition IC50
In short: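 10-point twofold Iso-Sensitest broth dilution (e.g. 50 to 0.097 μM final) with DMSO stocks, incubated at 35±2° C. Growth followed by OD 600 nm every 20 min over 16 h; IC50 derived from growth inhibition during logarithmic phase.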

[1] = Escherichia coli, ATCC25922, 16 h

Row | SMILES | pIC50 [1] | pIC50
1 | CNC(=O)COc1cc(C)c2c(c1C)CC(CNCCC1CN(c3cnc4c(n3)NC(=O)CO4)C(=O)O1)C2 (stereo not shown) [Example 113, 2-[[4,7-dimethyl-2-[[2-[2-oxo-3-(3-oxo-4H-pyrazino[2,3-b][1,4]oxazin-6-yl)-1,3-oxazolidin-5-yl]ethylamino]methyl]-2,3-dihydro-1H-inden-5-yl]oxy]-N-methylacetamide] | 6.49 | –
2 | CC(C)(N)COc1cc(F)c2c(c1F)CC(CNCCC1CN(c3cnc4c(n3)NC(=O)CO4)C(=O)O1)C2 (stereo not shown) [Example 411, 6-[5-[2-[[5-(2-amino-2-methylpropoxy)-4,7-difluoro-2,3-dihydro-1H-inden-2-yl]methylamino]ethyl]-2-oxo-1,3-oxazolidin-3-yl]-4H-pyrazino[2,3-b][1,4]oxazin-3-one; formic acid] | > 7.01 | –
3 | N#Cc1cccc2c1CC(CNCCC1CN(c3ccc4c(c3)NC(=O)CO4)C(=O)O1)C2 (stereo not shown) [Example 18, 2-[[2-[2-oxo-3-(3-oxo-4H-1,4-benzoxazin-6-yl)-1,3-oxazolidin-5-yl]ethylamino]methyl]-2,3-dihydro-1H-indene-4-carbonitrile; formic acid] | > 7.01 | –
4 | Cc1ncc2c(c1F)CC(CNCC[C@H]1CN(c3cnc4c(n3)NC(=O)CO4)C(=O)O1)C2 (stereo partly drawn) [Example 338, 6-[(5S)-5-[2-[(4-fluoro-3-methyl-6,7-dihydro-5H-cyclopenta[c]pyridin-6-yl)methylamino]ethyl]-2-oxo-1,3-oxazolidin-3-yl]-4H-pyrazino[2,3-b][1,4]oxazin-3-one] | > 7.01 | –
5 | O=C1COc2ccc(N3CC(CCNCC4Cc5c(ccnc5Cl)C4O)OC3=O)nc2N1 (racemic) [Example 41, 6-[2-oxo-5-[2-[[rac-(5,6-trans)-1-chloro-5-hydroxy-6,7-dihydro-5H-cyclopenta[c]pyridin-6-yl]methylamino]ethyl]-1,3-oxazolidin-3-yl]-4H-pyrido[3,2-b][1,4]oxazin-3-one; formic acid] | 6.14 | –
6 | Cc1ncc(F)c2c1CC(NCC(O)CC1CN(c3cnc4c(n3)NC(=O)CO4)C(=O)O1)C2 (single isomer, unassigned; isomer b) [Example 314, 6-[2-Oxo-5-[3-[(4-fluoro-1-methyl-6,7-dihydro-5H-cyclopenta[c]pyridin-6-yl)amino]-2-hydroxypropyl]-1,3-oxazolidin-3-yl]-4H-pyrazino[2,3-b][1,4]oxazin-3-one; formic acid, Isomer B] | – | 5.93
7 | Cc1nc2c(c3c1CC(CNCCC1CN(c4cnc5c(n4)NC(=O)CO5)C(=O)O1)C3)CCN2C (stereo not shown) [Example 424, 6-[5-[2-[(5,8-Dimethyl-5,7-diazatricyclo[7.3.0.0^2,6]dodeca-1,6,8-trien-11-yl)methylamino]ethyl]-2-oxo-1,3-oxazolidin-3-yl]-4H-pyrazino[2,3-b][1,4]oxazin-3-one] | 6.64 | –
8 | N#Cc1cccc2c1CC(CNCCC1OC(=O)N(c3ccc4c(n3)NC(=O)CO4)C1CN)C2 (racemic) [Example 149, 2-[[2-[rac-4,5-trans-4-(aminomethyl)-2-oxo-3-(3-oxo-4H-pyrido[3,2-b][1,4]oxazin-6-yl)-1,3-oxazolidin-5-yl]ethylamino]methyl]-2,3-dihydro-1H-indene-4-carbonitrile; formic acid] | – | 6.04
9 | N#Cc1cccc2c1CC(N[C@H]1C[C@H](C3CN(c4ccc5c(n4)NC(=O)CO5)C(=O)O3)C1)C2 (stereo partly drawn) [Example 14, 2-[[trans-3-[2-oxo-3-(3-oxo-4H-pyrido[3,2-b][1,4]oxazin-6-yl)-1,3-oxazolidin-5-yl]cyclobutyl]amino]-2,3-dihydro-1H-indene-4-carbonitrile] | 6.38 | –
10 | NC1c2cccc(Cl)c2CC1CN1CCC2(CC1)CN(c1ccc3c(n1)NC(=O)CO3)C(=O)O2 (racemic) [Example 212, 6-[2-oxo-8-[[rac-1,2-trans-1-amino-4-chloro-2,3-dihydro-1H-inden-2-yl]methyl]-1-oxa-3,8-diazaspiro[4.5]decan-3-yl]-4H-pyrido[3,2-b][1,4]oxazin-3-one] | > 7.01 | –
